Molecular target: T1, (His)6-OsACBP5; rOsACBP5 (Oryza sativa, UniProt Q10P83)
T1 construct: gene ACBP5; N-terminal (His)6-tag, plasmid pOS543 (from pRSETA), E. coli BL21(DE3) Star pLysS, soluble fraction, HisTrap
T1 sequence (Q10P83 32-569): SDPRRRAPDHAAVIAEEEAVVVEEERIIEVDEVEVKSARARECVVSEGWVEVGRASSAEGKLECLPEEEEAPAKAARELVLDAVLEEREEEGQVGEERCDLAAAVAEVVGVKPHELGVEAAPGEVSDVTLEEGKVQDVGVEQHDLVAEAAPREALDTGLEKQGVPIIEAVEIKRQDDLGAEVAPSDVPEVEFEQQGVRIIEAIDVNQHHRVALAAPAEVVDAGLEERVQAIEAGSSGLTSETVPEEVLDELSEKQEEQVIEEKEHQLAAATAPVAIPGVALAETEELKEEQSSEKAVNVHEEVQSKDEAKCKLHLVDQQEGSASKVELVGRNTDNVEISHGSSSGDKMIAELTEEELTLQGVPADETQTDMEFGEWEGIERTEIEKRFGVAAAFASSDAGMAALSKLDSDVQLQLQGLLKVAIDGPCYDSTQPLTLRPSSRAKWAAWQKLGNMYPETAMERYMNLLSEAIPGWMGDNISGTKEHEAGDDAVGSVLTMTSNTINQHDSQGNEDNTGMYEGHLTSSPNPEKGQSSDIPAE
Experiment: isothermal titration calorimetry
Format: binding

Kd: 59.5 nM
Compound: CC/C=C\C/C=C\C/C=C\CCCCCCCC(=O)SCCNC(=O)CCNC(=O)[C@H](O)C(C)(C)COP(=O)(O)OP(=O)(O)OC[C@H]1O[C@@H](n2cnc3c(N)ncnc32)[C@H](O)[C@@H]1OP(=O)(O)O [18:3-acyl-CoA ester]

Source: publication PMC7483469, “The overexpression of OsACBP5 protects transgenic rice against necrotrophic, hemibiotrophic and biotrophic pathogens” (Scientific Reports, 2020)
